Test results taken from patent US8163909B2, “Substituted hydroxyethyl amine compounds as beta-secretase modulators and methods of use” (Amgen Inc., priority 2007, dated 2012).
Where two headings read alike, the source gives them in different places.

Key:
[1] = biological target: Beta Secretase enzyme (BACE) (Homo sapiens, UniProt P56817); experiment: In vitro enzymatic BACE FRET (fluorescence resonance energy transfer) assay; type: biochemical;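 also: fluorescence read after 1 h with 50 nM quenched peptide substrate spanning the BACE cleavage site, in pH 4.2 acetate buffer containing 10% DMSO and nonionic detergent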
Beta Secretase enzyme (BACE), sequence (P56817 46-501): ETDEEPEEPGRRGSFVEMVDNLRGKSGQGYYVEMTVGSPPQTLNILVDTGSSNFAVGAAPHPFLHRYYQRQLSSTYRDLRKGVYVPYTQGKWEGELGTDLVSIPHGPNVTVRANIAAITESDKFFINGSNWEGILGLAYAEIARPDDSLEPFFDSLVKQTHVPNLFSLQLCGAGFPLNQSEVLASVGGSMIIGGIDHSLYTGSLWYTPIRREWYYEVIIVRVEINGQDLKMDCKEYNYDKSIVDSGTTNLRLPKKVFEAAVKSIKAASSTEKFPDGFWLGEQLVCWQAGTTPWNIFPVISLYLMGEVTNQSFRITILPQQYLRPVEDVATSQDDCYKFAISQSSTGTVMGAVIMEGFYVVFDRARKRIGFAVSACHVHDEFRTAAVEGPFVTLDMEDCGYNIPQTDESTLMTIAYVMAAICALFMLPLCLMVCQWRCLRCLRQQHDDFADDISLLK

[2] = Microsomal stability assay, rat liver microsomes;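 also: rat liver microsomes (0.25 mg/mL) with about 1 µM compound plus 1 mM NADPH, pH 7.4, 37 °C for 30 min, parent left measured by LC-MS/MS against 0 min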
[3] = system: Aβ40 in conditioned medium of cells stably expressing Amyloid Precursor Protein (APP); experiment: In vitro BACE cell-based assay (Aβ40 in conditioned medium, sandwich ELISA); conditions: Homo sapiens;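 also: compounds added as a dilution series, secreted peptide quantified by europium time-resolved fluorescence readout, potency fitted from percent of control versus compound concentration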
CYP2D6 = CYP2D6 (Homo sapiens, UniProt P10635); experiment: CYP2D6 inhibition assay (bufuralol, pooled human liver microsomes)
CYP2D6, sequence (P10635 whole entry): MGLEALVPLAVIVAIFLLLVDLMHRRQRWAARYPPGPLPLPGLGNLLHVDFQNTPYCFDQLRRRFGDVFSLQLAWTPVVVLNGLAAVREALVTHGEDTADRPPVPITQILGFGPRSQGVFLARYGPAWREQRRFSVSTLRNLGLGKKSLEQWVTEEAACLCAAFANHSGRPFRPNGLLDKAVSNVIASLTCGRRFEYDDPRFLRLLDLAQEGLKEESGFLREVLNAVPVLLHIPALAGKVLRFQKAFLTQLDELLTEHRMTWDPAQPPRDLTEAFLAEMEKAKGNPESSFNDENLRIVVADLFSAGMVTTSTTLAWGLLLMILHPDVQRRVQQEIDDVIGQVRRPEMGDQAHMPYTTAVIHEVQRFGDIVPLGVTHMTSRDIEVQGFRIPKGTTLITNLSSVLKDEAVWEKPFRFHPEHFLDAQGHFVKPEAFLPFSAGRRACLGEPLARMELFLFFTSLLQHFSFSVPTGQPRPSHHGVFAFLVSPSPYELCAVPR

[4] = Microsomal stability assay, human liver microsomes;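 also: pooled human liver microsomes at 0.25 mg/mL with 1 µM compound and NADPH at 37 °C, pH 7.4, for 30 min, unchanged parent quantified by LC-MS/MS against the 0 min sample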
CYP3A4 (CYP3A) = CYP3A4 (CYP3A) (Homo sapiens, UniProt P08684); experiment: in vitro; conditions: microsomes, pH 7.4;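 also: inhibition of CYP3A-mediated 1-hydroxymidazolam formation after 10 min incubation with NADPH, quantified by HPLC MS relative to metabolite produced without test compound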
CYP3A4 (CYP3A), sequence (P08684 2-503): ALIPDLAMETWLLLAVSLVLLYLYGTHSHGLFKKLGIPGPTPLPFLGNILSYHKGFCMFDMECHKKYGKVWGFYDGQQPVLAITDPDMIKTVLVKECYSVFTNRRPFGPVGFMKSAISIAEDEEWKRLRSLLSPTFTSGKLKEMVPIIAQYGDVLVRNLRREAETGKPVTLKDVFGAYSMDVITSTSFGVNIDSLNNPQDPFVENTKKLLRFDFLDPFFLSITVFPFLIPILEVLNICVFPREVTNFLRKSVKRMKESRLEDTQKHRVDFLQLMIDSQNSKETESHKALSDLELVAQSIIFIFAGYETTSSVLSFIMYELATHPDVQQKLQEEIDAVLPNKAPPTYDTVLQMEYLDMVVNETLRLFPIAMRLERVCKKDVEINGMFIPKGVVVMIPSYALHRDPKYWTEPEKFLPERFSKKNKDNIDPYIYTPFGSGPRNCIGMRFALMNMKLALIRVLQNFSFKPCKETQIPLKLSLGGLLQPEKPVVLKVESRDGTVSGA

[5] = BACE enzyme assay, read-out: BACE1 FRET assay
[6] = HEK293, HEK cells, read-out: HEK cell assay
[7] = 2D6 IC50 (uM), CYP enzyme inhibition
[8] = Table 2, read-out: BACE1 FRET assay
[9] = HEK293, Table 2, HEK cells, read-out: HEK cell assay
[10] = 2D6 IC50, CYP enzyme inhibition
[11] = BACE enzyme assay, IC50's in uM, read-out: BACE1 FRET assay
[12] = HEK293, HEK cell-based assay, IC50's in uM, read-out: HEK cell assay
[13] = BACE enzyme assay IC50, read-out: BACE1 FRET assay
[14] = HEK293, HEK cell-based assay IC50, read-out: HEK cell assay
[15] = 2D6 IC50 (uM), CYP2D6 inhibition
[16] = read-out: BACE1 FRET assay (IC50)
[17] = HEK293, HEK cells, read-out: HEK cell assay (IC50)
[18] = HEK293, cell-based assay, HEK cells, IC50's in uM, read-out: HEK cell assay

Compound	IC50 [1, 5] [µM]	RLM ([2]; rat liver microsomal data) [µL/min/mg]	IC50 [3, 6] [µM]	IC50 (CYP2D6; [7]) [µM]	HLM ([4]; human liver microsomal data) [µL/min/mg]	IC50 (CYP3A4 (CYP3A)) [nM]	other results
CO[C@H](C)C(=O)N[C@@H](Cc1ccccc1)[C@H](O)CN[C@H]1CC2(CCC2)Oc2c1cc(CC(C)C)cc2-n1ccnc1 [compound 547]	0.042	260	0.073	4.4	53	100	–
CO[C@H](C)C(=O)N[C@@H](Cc1ccc2c(c1)OCO2)[C@H](O)CN[C@H]1CC2(CCC2)Oc2c1cc(CC(C)(C)C)nc2N(C)C [compound 444]	–	662	–	–	399	7500	IC50 [1, 8]: 0.298 µM; IC50 [3, 9]: 0.777 µM; IC50 (CYP2D6; [10]): 9.4 µM
CO[C@H](C)C(=O)N[C@@H](Cc1ccc2c(c1)OCO2)[C@H](O)CN[C@H]1CC2(CCC2)Oc2ccc(C[C@H](C)F)cc21 [compound 555]	3.42	543	> 10	0.9	269	400	–
CC(C)(C)Cc1cnc2c(c1)[C@@H](NC[C@@H](O)[C@H](Cc1ccc3c(c1)OCO3)NC(=O)CC1CCS(=O)(=O)C1)CC1(CCC1)O2 (stereo partly drawn) [compound 778]	–	141	–	8.5	62	100	IC50 [1, 11]: 0.048 µM; IC50 [3, 12]: 0.05 µM
CC(C)(C)Cc1cnc2c(c1)[C@@H](NC[C@@H](O)[C@H](Cc1ccc3c(c1)OCO3)NC(=O)[C@@H]1CCO1)CC1(CCC1)O2 [compound 525]	0.021	101	0.019	3.1	32	200	–
C#Cc1cc2c(c(-n3ccnc3)c1)OC1(CCC1)C[C@@H]2NC[C@@H](O)[C@H](Cc1cc(F)cc(F)c1)NC(=O)COC [compound 689]	–	–	–	–	–	≤ 30	IC50 [1, 13]: 0.038 µM; RLM ([2]; rat liver microsomes): 44.5 µL/min/mg; IC50 [3, 14]: 0.027 µM; IC50 (CYP2D6; [15]): 0.2 µM; HLM ([4]; human liver microsomes): 18.5 µL/min/mg
CO[C@H](C)C(=O)N[C@@H](Cc1ccncc1)[C@H](O)CN[C@H]1CC2(CCC2)Oc2ncc(CC(C)(C)C)cc21 [compound 534]	0.023	113	0.014	3.6	178	500	–
CC(=O)N[C@@H](Cc1cc(Br)c2c(c1)OCO2)[C@H](O)CN[C@H]1CC2(CCC2)Oc2ncc(CC(C)(C)F)cc21 [compound 624]	–	–	–	–	–	160	IC50 [1, 16]: 0.2 µM; RLM ([2]; rat liver microsomes): 150 µL/min/mg; IC50 [3, 17]: 0.081 µM; IC50 (CYP2D6; 2D6 IC50, CYP2D6 inhibition): 1.2 µM; HLM ([4]; human liver microsomes): 48 µL/min/mg
CC(C)(C)Cc1cnc2c(c1)[C@@H](NC[C@@H](O)[C@H](Cc1ccc(F)cc1)NC=O)CC1(CCC1)O2 [compound 540]	0.014	347	0.074	2.3	264	1200	–
COCC(=O)N[C@@H](Cc1cc(F)cc(F)c1)[C@H](O)CN[C@H]1CC2(CCC2)Oc2c1cc(CC(C)(C)C)nc2Nc1ccncc1 [compound 571]	0.053	193	0.003	2.3	142	100	–
COCC(=O)N[C@@H](Cc1cc(F)cc(-c2nccs2)c1)[C@H](O)CN[C@H]1CC2(CCC2)Oc2ncc(CC(C)(C)F)cc21 [Example 724, N-((1S,2R)-3-(((4′S)-6′-(2-fluoro-2-methylpropyl)-3′,4′-dihydrospiro[cyclobutane-1,2′-pyrano[2,3-b]pyridin]-4′-yl)amino)-1-(3-fluoro-5-(1,3-thiazol-2-yl)benzyl)-2-hydroxypropyl)-2-methoxyacetamide]	–	–	–	–	–	200	IC50 [1, 13]: 0.006 µM; RLM ([2]; rat liver microsomes): 38 µL/min/mg; IC50 [3, 14]: 0.009 µM; IC50 (CYP2D6; [15]): 0.9 µM; HLM ([4]; human liver microsomes): 45 µL/min/mg
CO[C@H](C)C(=O)N[C@@H](Cc1ccc2c(c1)OCO2)[C@H](O)CN[C@H]1CC2(CCC2)Oc2ncc(CC(F)(F)F)cc21 [compound 519]	0.255	71	0.81	7.4	33	300	–
COCC(=O)N[C@@H](Cc1ccc2c(c1)OCO2)[C@H](O)CN[C@H]1CC2(CCC2)Oc2ncc(CC(F)(F)F)cc21 [compound 518]	0.131	82	0.34	2.7	26	300	–
COCC(=O)N[C@@H](Cc1cc(F)cc(-c2nccs2)c1)C(=O)CN[C@H]1CC2(CCC2)Oc2ncc(CC(C)C)cc21 [compound 918]	–	128	–	–	116	100	IC50 [1, 11]: 0.0164 µM; IC50 [3, 18]: > 10 µM; IC50 (CYP2D6; [10]): 0.5 µM
CC(C)(C)CCC(=O)N[C@@H](Cc1ccccc1)[C@H](O)CN[C@H]1CC2(CCC2)Oc2ncc(CC(C)(C)C)cc21 [compound 819]	–	543	–	2	736	200	IC50 [1, 11]: 0.013 µM; IC50 [3, 12]: 0.074 µM
CO[C@H](C)C(=O)N[C@@H](Cc1cc(F)cc(F)c1)[C@H](O)CN[C@H]1CC2(CCC2)Oc2c1cc(CC(C)(C)C)nc2-n1ccnc1 [compound 495]	0.02	62	0.08	2	41	100	–
COCC(=O)N[C@@H](Cc1cncs1)[C@H](O)CN[C@H]1CC2(CCC2)Oc2c(-c3ccncc3)cc(CC(C)(C)C)cc21 [compound 633]	–	–	–	–	–	100	IC50 [1, 16]: 0.021 µM; RLM ([2]; rat liver microsomes): 153 µL/min/mg; IC50 [3, 17]: 0.011 µM; IC50 (CYP2D6; 2D6 IC50, CYP2D6 inhibition): 3 µM; HLM ([4]; human liver microsomes): 53 µL/min/mg
COCC(=O)N[C@@H](Cc1cc(F)cc(F)c1)[C@H](O)CN[C@H]1CC2(CCC2)Oc2c(-c3nccs3)cc(CC(C)(C)C)cc21 [compound 463]	–	662	–	–	682	1100	IC50 [1, 8]: 0.003 µM; IC50 [3, 9]: 0.048 µM; IC50 (CYP2D6; [10]): 7.2 µM
CO[C@H](C)C(=O)N[C@@H](Cc1cc(-c2nccs2)ccc1F)[C@H](O)CN[C@H]1CC2(CCC2)Oc2ncc(CC(C)(C)C)cc21 [compound 898]	–	121	–	–	67	100	IC50 [1, 11]: 0.01 µM; IC50 [3, 18]: 0.014 µM; IC50 (CYP2D6; [10]): 1 µM
CO[C@H](C)C(=O)N[C@@H](Cc1ccc2c(c1)OCO2)[C@H](O)CN[C@H]1CC2(CCC2)C(=O)c2ncc(CC(C)(C)C)cc21 [compound 626]	–	–	–	–	–	500	IC50 [1, 16]: 0.133 µM; RLM ([2]; rat liver microsomes): 260 µL/min/mg; IC50 [3, 17]: 0.108 µM; IC50 (CYP2D6; 2D6 IC50, CYP2D6 inhibition): 14.4 µM; HLM ([4]; human liver microsomes): 153 µL/min/mg
COCC(=O)N[C@@H](Cc1cc(F)cc(-c2nccs2)c1)[C@H](O)CN[C@H]1CC2(CCC2)Oc2ncc(CC(C)C)cc21 [Example 695, N-((1S,2R)-1-(3-fluoro-5-(1,3-thiazol-2-yl)benzyl)-2-hydroxy-3-(((4′S)-6′-(2-methylpropyl)-3′,4′-dihydrospiro[cyclobutane-1,2′-pyrano[2,3-b]pyridin]-4′-yl)amino)propyl)-2-methoxyacetamide]	–	–	–	–	–	100	IC50 [1, 13]: 0.004 µM; RLM ([2]; rat liver microsomes): 64 µL/min/mg; IC50 [3, 14]: 0.011 µM; IC50 (CYP2D6; [15]): 0.5 µM; HLM ([4]; human liver microsomes): 77 µL/min/mg
